# Data published in publication PMC9643865, “Bromo-protopine, a novel protopine derivative, alleviates tau pathology by activating chaperone-mediated autophagy for Alzheimer’s disease therapy” (Frontiers in Molecular Biosciences, 2022).
# Assays:
# [1] = system: P301S mice; test: Brain immunoblotting (sarkosyl tau fractions, chaperones, LAMP2A) and IHC; format: in vivo
# Protocol: Female homozygous P301S mice bearing the transgene for MAPT (P301S), were generous gifts from Michael Goedert. P301S-tau mice (1.5-month-old, n = 8) were administered with PRO-Br daily for 2.5 months. The mice models employed in the study were maintained under 12 h light-dark cycles and were provided ad libitum access to chow and water.
# Brain tissues from experimental mice were carefully isolated, washed with 1X PBS, and fixed with 4% paraformaldehyde. Post-fixation for 48 h, brain tissues were transferred to 30% sucrose solution for cryopreservation. Tissue sections (30 μm) were obtained using a cryotome, maintained at a constant -30°C. Permeabilization was performed with 0.4% triton-X-100 for 10 min. For tau immunofluorescence, PHF1 primary antibody was added, and sections were kept overnight at four°C. The following day, an appropriate secondary antibody was added at RT for 1.5 h. DAPI was used as a nuclear stain for 5 min. For DAB staining, AT8 primary antibody was added to the sections overnight. The next day, an appropriate secondary antibody was added for 1.5 h. Staining was performed by employing a Vectastain-ELITE ABC-HRP kit according to the manufacturer’s procedure. […] Images of cortical/hippocampal regions were taken with an Eclipse 80i fluorescence microscope (Nikon Instruments Inc.). […] The captured images were quantified using ImageJ (NIH) software.
# Brain tissues of 3xTg-AD and P301S mice were separated, sagittally, into equal halves. […] Protein lysates were evaluated for changes in levels of phospho epitopes of tau (AT8, CP13, PHF-1, MC-1, and ALZ50), and for total htau (HT7) using Western blot.
# After PRO-Br treatment, cells were solubilised using cold RIPA lysis buffer (9803, Life Technologies), containing protease and phosphatase inhibitor tablets. […] Total protein concentration was determined by BCA protein assay, and the samples were separated on SDS-PAGE and transferred to PVDF membranes. […] Films were scanned, and the relative intensities of the signals were analyzed using ImageJ software.
# [2] = system: 3xTg-AD mice; test: Morris water maze test; format: in vivo; details: oral, 1 and 2.5 mg/kg, 8 months
# Protocol: (§1) Female homozygous 3xTg-AD mice carrying transgenes for APP (Swedish KM670/671Nl), MAPT (tauP301L) and Psen1 (M146V) were procured from Jackson’s Laboratory (# 004807). The transgenic mice colonies were bred and maintained in the HKBU animal house at 23 ± 2 °C, 60 ± 15% relative humidity with regular access to food and water. Seven-month-old 3xTg-AD mice were randomly segregated into three treatment groups: Tg-Vehicle, 1 mg/kg, and 2.5 mg/kg PRO-Br. PRO-Br was administered orally for 8 months (n = 8). The bodyweight of mice from all the groups was recorded once every week.
# To determine the memory functions of experimental mice, the Morris water maze test was performed according to the procedure described previously ([Iyaswamy et al., 2020]). Mice training preliminary to the probe trail was performed in two phases. The first phase, known as the visible-platform training, comprised four trials, for 1 day. In each trial, a platform was placed in the tank, 1 cm below the surface of the (clear) water. The mouse was introduced, and the time required for the mouse to find the platform was recorded. The position of the platform was changed for every trial. […] The distance travelled (cm) to reach the platform in the target quadrant was observed and recorded by a video tracking method (Ethovision, Noldus Information Technology, Version 3).
# [3] = system: N2A cells; test: LAMP2A / HSC70 expression; format: cell-based, mouse; details: compared to Trehalose (positive control)
# Protocol: SHSY5Y cells stably-expressing mutant tau (SHSYP301L) were cultured in DMEM/F12 + 15% FBS, 3 μg/ml Blasticidin S HCl, and 1X PSN. N2A mouse neuroblastoma and mouse hippocampal neuronal (HT22) cells were cultured in DMEM+10% FBS, and 1X PSN. Sterile complete medium containing PRO-Br was added to the cells, and they were then incubated for 24 h at an optimum temperature of 37°C in a sterile 5% CO2 incubator.
# (§2) After PRO-Br treatment, cells were solubilised using cold RIPA lysis buffer (9803, Life Technologies), containing protease and phosphatase inhibitor tablets. Cells were sonicated and centrifuged at 14000 rpm for 15 min. Total protein concentration was determined by BCA protein assay, and the samples were separated on SDS-PAGE and transferred to PVDF membranes. The membranes were blocked, washed, and incubated with primary antibodies (Table 1), and incubated at 4°C, overnight. The membranes were further incubated with the required dilutions of secondary antibody for 1 h, at RT. The chemiluminescent signals were captured using x-ray film in a darkroom, with an appropriate chemiluminescent substrate kit (ThermoFisher Scientific, United States). Films were scanned, and the relative intensities of the signals were analyzed using ImageJ software.
# [4] = system: 3xTg-AD mice; test: Brain immunoblotting (sarkosyl tau fractions, chaperones, LAMP2A) and IHC; format: in vivo
# Protocol: as §1
# Brain tissues from experimental mice were carefully isolated, washed with 1X PBS, and fixed with 4% paraformaldehyde. Post-fixation for 48 h, brain tissues were transferred to 30% sucrose solution for cryopreservation. Tissue sections (30 μm) were obtained using a cryotome, maintained at a constant -30°C. Permeabilization was performed with 0.4% triton-X-100 for 10 min. For tau immunofluorescence, PHF1 primary antibody was added, and sections were kept overnight at four°C. The following day, an appropriate secondary antibody was added at RT for 1.5 h. DAPI was used as a nuclear stain for 5 min. For DAB staining, AT8 primary antibody was added to the sections overnight. The next day, an appropriate secondary antibody was added for 1.5 h. Staining was performed by employing a Vectastain-ELITE ABC-HRP kit according to the manufacturer’s procedure. The stained sections were carefully arranged on glass slides and mounted with an appropriate mounting medium under a coverslip. Images of cortical/hippocampal regions were taken with an Eclipse 80i fluorescence microscope (Nikon Instruments Inc.). The threshold was adjusted to remove the background staining. The captured images were quantified using ImageJ (NIH) software.
# Brain tissues of 3xTg-AD and P301S mice were separated, sagittally, into equal halves. One-half was lysed with tissue lysis buffer augmented with phosphatase and protease inhibitor cocktail tablets, while the other half was used for immunohistochemical analysis. Brain tissues were homogenized on ice using an Ultra Turrax tissue homogenizer. Brain tissue homogenate was subjected to sarkosyl differential centrifugation with 1% sarkosyl to separate the non-pathogenic soluble and pathogenic insoluble tau fractions. Protein lysates were evaluated for changes in levels of phospho epitopes of tau (AT8, CP13, PHF-1, MC-1, and ALZ50), and for total htau (HT7) using Western blot.
# as §2
# [5] = system: 3xTg-AD mice; test: Golgi staining of dendritic spines; format: in vivo; details: oral, 8 months
# Protocol: as §1
# FD Rapid Golgi Stain Kit was employed to determine the dendritic spine density in the 3xTg-AD mice brains and was performed according to procedure described previously ([Iyaswamy et al., 2022]). Briefly, mice were perfused using 4% PFA, and the brains were dissected carefully to avoid damage. Next, the brain samples were frozen by dipping in isopentane solution (on dry ice). The frozen brains were sectioned at 150 μm thickness using a Shandon Cryotome SME Cryostat (Ramsey, MN, United States). The tissue slices were carefully mounted onto glass slides and stained with the kit reagents in accordance with the manufacturer’s procedure. The dendritic images were acquired by Leica confocal microscope. […]
smiles,measurement,setting,value
"CN1CCc2cc3c(cc2C(=O)Cc2c(Br)cc4c(c2C1)OCO4)OCO3 [PRO-Br, bromo-protopine]",AT8- and PHF1-positive cell counts,[1]; IHC,significantly reduced
same,expression of sarkosyl-insoluble phospho-tau variants,"[1]; brain, immunoblotting",specifically reduced the expression of sarkosyl-insoluble phospho-tau variants in a dose-dependent manner
same,protein expression of LAMP2A,"[1]; brain, immunoblotting",dose-dependently increased
same,learning and memory impairment (Morris water maze),[2],significantly reversed the learning and memory impairment
same,expression of LAMP2A and HSC70,[3],increased expression of LAMP2A and HSC70
same,AT8-positive cell count in the cortico-hippocampal regions,"[4]; 1.0 and 2.5 mg/kg, IHC",significantly reduced AT8-positive cell count
same,acetylation of HSP90 (K294),"[4]; brain, immunoblotting",dose-dependently enhanced the acetylation of HSP90 (K294)
same,expression of sarkosyl-insoluble phospho-tau variants,"[4]; brain, immunoblotting",specifically reduced the expression of sarkosyl-insoluble phospho-tau variants in a dose-dependent manner
same,heat shock proteins HSP70 and HSC70,"[4]; brain, immunoblotting",dose-dependently increased the heat shock proteins HSP70 and HSC70
same,protein expression of LAMP2A,"[4]; brain, immunoblotting",dose-dependently increased
same,"dendritic spine structures (thin, stubby and mushroom-like) in the hippocampus",[5],significantly enhanced the dendritic spine structures
